{"source": "paper PMC4226810", "about": "(Journal of pharmacokinetics and pharmacodynamics, 2014)", "key": {"[1]": {"assay": "Plasma pharmacokinetics after oral administration in MOLM13 xenograft mice", "assay_type": "in vivo, mouse", "conditions": "for Km: CrTac:NCR-Foxn1nu nude; for Vmax: Michaelis-Menten elimination; for Vmax / V: one compartment model"}, "[2]": {"conditions": "absorption rate constant fixed based on previous studies ref 21, cited from earlier work"}, "[3]": {"test_system": "STAT5^Y694 phosphorylation (biomarker of FLT3^ITD activity)", "assay": "Subcutaneous MOLM13 tumor cellular signaling: pSTAT5", "assay_type": "in vivo, mouse", "conditions": "for inhibition of phosphorylation of STAT5 at the time of maximum effect: subcutaneous tumor"}, "[4]": {"test_system": "STAT5^Y694 phosphorylation", "assay": "Orthotopic MOLM13-Luc tumor cellular signaling: pSTAT5", "assay_type": "in vivo, mouse", "conditions": "model estimate (%RSE)"}, "[5]": {"test_system": "Rb^S780 phosphorylation (biomarker of CDK4/6 activity)", "assay": "Subcutaneous MOLM13 tumor cellular signaling: pRb", "conditions": "50 mg/Kg QD multiple-day dosing, at 240 hr; baseline pRb(0) 82,600"}, "MOLM13-Luc tumors": {"test_system": "MOLM13-Luc tumors", "assay": "Orthotopic tumor burden", "assay_type": "in vivo, mouse", "conditions": "population mean"}, "[6]": {"assay": "Fraction unbound by modified ultra-filtration method", "assay_type": "in vitro ADME", "conditions": "plasma"}}, "note": "Read-outs that look alike come from different tables or passages of the source."}
{"smiles": "CNC(=O)c1cc(Oc2ccc(NC(=O)Nc3ccc(Cl)c(C(F)(F)F)c3)cc2)ccn1", "note": "[sorafenib]", "values": [{"measurement": "Km", "setting": "[1]; mouse, plasma, oral", "value": 0.00985, "unit": "µM"}, {"measurement": "Vmax", "setting": "[1]; estimate (%RSE)", "value": "0.0736 (12) nmol/h"}, {"measurement": "V", "setting": "[1]; estimate (%RSE)", "value": "0.0247 (4.4) L"}, {"measurement": "ka (Fixed)", "setting": "[2]", "value": 3, "unit": "h⁻¹"}, {"measurement": "ka (Fixed)", "setting": "[2]; listed as Sorafenib", "value": "3 (Fixed) h^−1"}, {"measurement": "inhibition of phosphorylation of STAT5 at the time of maximum effect", "setting": "[3]; single dose 10mg/kg oral", "value": "almost completely inhibit"}, {"measurement": "ratio of IC50 for pSTAT5 inhibition to IC50 for pRb inhibition", "setting": "[3]; subcutaneous tumor signaling model", "value": 17, "unit": "fold"}]}
{"smiles": "C[C@H]1CC[C@H](n2c3cnccc3c3cnc(Nc4ccc5c(n4)CCN(C(=O)CO)C5)nc32)CC1", "note": "[AMG925]", "values": [{"measurement": "Hill coefficient of pSTAT5 inhibition (HAMG)", "setting": "[4]", "value": "1.92 (4.9)"}, {"measurement": "Km", "setting": "[1]; mouse, plasma, oral", "value": 0.0945, "unit": "µM"}, {"measurement": "Vmax", "setting": "[1]; estimate (%RSE)", "value": "4.16 (3.1) nmol/h"}, {"measurement": "ka", "setting": "[1]; absorption rate constant, estimate (%RSE)", "value": "1.00 (20) h^−1"}, {"measurement": "V", "setting": "[1]; estimate (%RSE)", "value": "0.109 (7.4) L"}, {"measurement": "ratio of IC50 on pSTAT5, subcutaneous xenograft over orthotopic xenograft", "setting": "[3]; 27.7 nM vs 6.08 nM", "value": 4, "unit": "fold"}, {"measurement": "measured value of pSTAT5 (mean+/−sd)", "setting": "[3]; 50 mg/Kg QD multiple-day dosing, at 240 hr, baseline pSTAT5(0) 18,000", "value": "17020+/−1133"}, {"measurement": "inhibition of phosphorylation of STAT5 at the time of maximum effect", "setting": "[3]; single dose 150mg/kg oral", "value": "almost completely inhibit"}, {"measurement": "measured value of pRb (mean+/−sd)", "setting": "[5]", "value": "72870+/−1247"}, {"measurement": "HR Hill coefficient", "setting": "MOLM13-Luc tumors; pRb term of orthotopic tumor burden model", "value": 14.9}, {"measurement": "HS Hill coefficient", "setting": "MOLM13-Luc tumors; pSTAT5 term of orthotopic tumor burden model", "value": 15.1}]}
{"smiles": "CC(C)(C)c1cc(NC(=O)Nc2ccc(-c3cn4c(n3)sc3cc(OCCN5CCOCC5)ccc34)cc2)no1", "note": "[AC220, quizartinib]", "values": [{"measurement": "k el", "setting": "[1]; CrTac:NCR-Foxn1^nu nude, mouse, plasma, oral", "value": "5.31e-05", "unit": "s⁻¹"}, {"measurement": "V", "setting": "[1]; estimate (%RSE)", "value": "0.0964 (10) L"}, {"measurement": "fraction unbound", "setting": "[6]", "value": 0.0107}]}
